According to patent US4056674A, “Derivatives of 3-deazaguanine” (priority 1975, dated 1977):
≈ marks a conversion by molar mass, not a printed value. Where two headings read alike, the source gives them in different places.

Assays:
virus = conditions: background statement; cited from earlier work
[1] = tested on: viruses causing respiratory diseases such as influenza in man; conditions: background statement; cited from earlier work
leukemia L1210 = assay: Activity against leukemia L1210 in BDF1 female mice; assay type: in vivo; conditions: 40 mg/kg i.p., qd [1-9]
Procedure: In this example compound 30 was tested for antitumor activity in mice. […] A 10^-5 M concentration of compound 30 caused 50% inhibition of the incorporation of ^3 H-thymidine and ^3 H-uridine into the acidinsoluble fraction of L1210 cells in tissue culture. […] Ara C (cytosine arabinoside) was included as a standard.
All animals were inoculated (i.p) with 10^5 leukemic cells. Treatment
was started 24 hours after transplant. Figures in parenthesis denote 21

[2] = tested on: herpes simplex virus, type 1; assay: In vitro antiviral, inhibition of virus-induced CPE, HSV/1; assay type: cell-based; conditions: KB or RK-13 cells, VR >0.5 significant, <0.5 slight antiviral activity
[3] = tested on: herpes simplex virus, type 2; assay: In vitro antiviral, inhibition of virus-induced CPE, HSV/2; assay type: cell-based; conditions: KB or RK-13 cells, VR >0.5 significant, <0.5 slight antiviral activity
adenovirus, type 3 = assay: In vitro antiviral, inhibition of virus-induced cytopathogenic effect (CPE), AV/3; assay type: cell-based; conditions: KB or RK-13 cells, VR >0.5 significant, <0.5 slight antiviral activity
vaccinia virus = assay type: cell-based; conditions: VV; KB or RK-13 cells; VR >0.5 significant, <0.5 slight antiviral activity
human cytomegalovirus = assay: In vitro antiviral, inhibition of virus-induced CPE, HCMV; assay type: cell-based; conditions: KB or RK-13 cells, VR >0.5 significant, <0.5 slight antiviral activity
pseudorabies virus = assay type: cell-based; conditions: PRV; KB or RK-13 cells; VR >0.5 significant, <0.5 slight antiviral activity
myxoma virus = assay: In vitro antiviral, inhibition of virus-induced CPE, MV; assay type: cell-based; conditions: KB or RK-13 cells, VR >0.5 significant, <0.5 slight antiviral activity
Procedure: In this example, compounds 3, 4, 13, 16, 20, 22, 29 and 30 were tested to determine their in vitro antiviral efficacy, using the inhibition virus-induced cytopathogenic effect (CPE) method of Sidwell, et al. (Applied Microbiology 22:797-801, 1971). Briefly, the CPE procedure includes the suspension of the antiviral agent in a cell culture medium consisting of vitamins, amino acids, serum, buffer, penicillin, streptomycin and indicator dye in water. The virus suspended in the cell culture medium was added to an established monolayer of KB cells or RK-13 cells, and an equal volume of the antiviral agent was then added within 15 minutes. The infected treated cells were graded following microscopic examination. Controls for each experiment include cell controls cells and cell culture medium only), virus controls (cell and virus cell culture medium) and toxicity controls (cells and chemical and cell culture medium).
The virus rating (VR) system of Sidwell et al., described in Applied Microbiology, supra, was used to evaluate the degree of significance of CPE inhibition.

[4] = tested on: Parainfluenza virus, type 3; assay: In vitro antiviral, inhibition of virus-induced CPE, PIV/3; assay type: cell-based
[5] = tested on: parainfluenza virus, type 1; assay: In vitro antiviral, inhibition of virus-induced CPE, PIV/1; assay type: cell-based
rhinovirus, type 1A = assay: In vitro antiviral, inhibition of virus-induced CPE, RV/1A; assay type: cell-based; conditions: KB or RK-13 cells, VR >0.5 significant, <0.5 slight antiviral activity
RV/2: rhinovirus, type 1 = assay: In vitro antiviral, inhibition of virus-induced CPE, RV/2; assay type: cell-based; conditions: KB or RK-13 cells, VR >0.5 significant, <0.5 slight antiviral activity
rhinovirus, type 8 = assay: In vitro antiviral, inhibition of virus-induced CPE, RV/8; assay type: cell-based; conditions: KB or RK-13 cells, VR >0.5 significant, <0.5 slight antiviral activity
rhinovirus, type 13 = assay: In vitro antiviral, inhibition of virus-induced CPE, RV/13; assay type: cell-based; conditions: KB or RK-13 cells, VR >0.5 significant, <0.5 slight antiviral activity
rhinovirus, type 56 = assay: In vitro antiviral, inhibition of virus-induced CPE, RV/56; assay type: cell-based; conditions: KB or RK-13 cells, VR >0.5 significant, <0.5 slight antiviral activity
influenza virus, type Ao = assay: In vitro antiviral, inhibition of virus-induced CPE, IV/Ao; assay type: cell-based; conditions: KB or RK-13 cells, VR >0.5 significant, <0.5 slight antiviral activity
[6] = tested on: vesicular stomatitis virus; assay type: cell-based; conditions: VSV; KB or RK-13 cells; VR >0.5 significant, <0.5 slight antiviral activity
Escherichis = assay: In vitro antibacterial, broth dilution assay, Escherichia; assay type: cell-based; conditions: Escherichis; clinical isolates; 24 hr at 35°; read-out: Average MIC
Procedure: (§1) In this example compounds 7 and 30 were tested to determine their in vitro antibacterial activity. Clinical isolates of pathogens were used for this example. In vitro sensitivity of these organisms were quantitatively determined by broth dilution assay. Serial dilutions were prepared in chemically defined medium in a range from 100 to 0.01 μg/ml. The minimal Inhibitory Concentration (MIC) was recorded as the highest dilution of compound which prevented visible growth of the pathogen following 24 hr incubation at 35°.

Salmonella = assay: In vitro antibacterial, broth dilution assay, Salmonella; assay type: cell-based; conditions: clinical isolates, 24 hr at 35°
Procedure: as §1

Serratia = assay: In vitro antibacterial, broth dilution assay, Serratia; assay type: cell-based; conditions: clinical isolates, 24 hr at 35°
Procedure: as §1

Klebsiella = assay: In vitro antibacterial, broth dilution assay, Klebsiella; assay type: cell-based; conditions: clinical isolates, 24 hr at 35°
Procedure: as §1

Enterobacter = assay: In vitro antibacterial, broth dilution assay, Enterobacter; assay type: cell-based; conditions: clinical isolates, 24 hr at 35°
Procedure: as §1

Citrobacter = assay: In vitro antibacterial, broth dilution assay, Citrobacter; assay type: cell-based; conditions: clinical isolates, 24 hr at 35°
Procedure: as §1

Providence = assay: In vitro antibacterial, broth dilution assay, Providence; assay type: cell-based; conditions: clinical isolates, 24 hr at 35°
Procedure: as §1

Pseudomonas = assay: In vitro antibacterial, broth dilution assay, Pseudomonas; assay type: cell-based; conditions: clinical isolates, 24 hr at 35°
Procedure: as §1

Proteus = assay: In vitro antibacterial, broth dilution assay, Proteus; assay type: cell-based; conditions: Proteus; clinical isolates; 24 hr at 35°; read-out: Average MIC
Procedure: as §1

Shigella = assay: In vitro antibacterial, broth dilution assay, Shigella; assay type: cell-based; conditions: clinical isolates, 24 hr at 35°
Procedure: as §1

Escherichia Coli = assay: In vivo antibacterial activity, survival of mice after intraperitoneal challenge with Escherichia coli 138; parameters: species or system white mice (ICR, COX 17 to 20 g); conditions: 7 days
Procedure: In this example compounds 7 and 23 were tested along with, as a comparison, the known antibiotic Gentamycin, to determine their in vivo antibacterial activity. Experimental infections were produced in groups of 20 white mice (ICR, COX 17 to 20 g).
*Ec 138: Tetracycline and Streptomycin
**The LD50 is the challenge that killed 50% of the infected mice; th
LD50 values for the pathogen were calculated by the method of Probit

NC(=O)c1nc[nH]n1 [1,2,4-triazole-3-carboxamide]
antiviral activity (virus): significant antiviral activity

NC(=S)c1nc[nH]n1 [1,2,4-triazole-3thiocarboxamide]
antiviral activity (virus): significant antiviral activity

NC(=O)c1ncn([C@@H]2O[C@H](CO)[C@@H](O)[C@H]2O)n1 [1-β-D-ribofuranosyl-1,2,4-triazole-3-carboxamide]
activity against respiratory disease viruses [1]: active against these respiratory disease viruses

Nc1ccn([C@@H]2O[C@H](CO)[C@@H](O)[C@@H]2O)c(=O)n1 [Ara C, 1-β-D-arabinofuranosylcytosine, reference compound]
21 day survivors (leukemia L1210): 0/6
Average Mean Survival (leukemia L1210): 17.33 days
T/C (leukemia L1210): 2.11
ΔWt. (leukemia L1210): -0.2 g
activity against respiratory disease viruses [1]: only active against a limited spectrum of viruses which does not include those causing respiratory diseases

N#CCc1c(C(N)=O)ncn1[C@@H]1O[C@H](CO)[C@@H](O)[C@H]1O [Compound 3, 5-Cyanomethyl-1-β-D-ribofuranosylimidazole-4-carboxamide]
Virus rating (VR) [2]: 0.6
Virus rating (VR) [3]: 1.3

Nc1cc2c(ncn2[C@@H]2O[C@H](CO)[C@@H](O)[C@H]2O)c(=O)[nH]1 [Compound 4, 6-Amino-1-β-D-ribofuranosylimidazo[4,5-c]pyridin-4(5H)-one]
Virus rating (VR) (adenovirus, type 3): 0.8
Virus rating (VR) [2]: 0.9
Virus rating (VR) (vaccinia virus): 0.6
Virus rating (VR) (human cytomegalovirus): 0.5
Virus rating (VR) (pseudorabies virus): 0.3
Virus rating (VR) (myxoma virus): 1.0
Virus rating (VR) ([4]; PIV/3, KB or RK-13 cells, VR >0.5 significant, <0.5 slight antiviral activity): 0.6
Virus rating (VR) ([5]; PIV/1, KB or RK-13 cells, VR >0.5 significant, <0.5 slight antiviral activity): 0.6
Virus rating (VR) (rhinovirus, type 1A): 0.1
Virus rating (VR) (RV/2: rhinovirus, type 1): 1.2
Virus rating (VR) (rhinovirus, type 8): 1.2
Virus rating (VR) (rhinovirus, type 13): 1.0
Virus rating (VR) (rhinovirus, type 56): 0.7
Virus rating (VR) (influenza virus, type Ao): 0.1
Virus rating (VR) [6]: 1.1

Nc1cc2ncn([C@@H]3O[C@H](CO)[C@@H](O)[C@H]3O)c2c(=O)[nH]1 [Compound 7, 6-amino-3-β-D-ribofuranosylimidazo[4,5-c]pyridin-4(5H)one]
MIC (Escherichis): 0.5 µg/mL (≈ 1.77 µM)
MIC (Salmonella): 5 µg/mL (≈ 17.7 µM)
MIC (Serratia): 5 µg/mL (≈ 17.7 µM)
MIC (Klebsiella): 8 µg/mL (≈ 28.3 µM)
MIC (Enterobacter): 10 µg/mL (≈ 35.4 µM)
MIC (Citrobacter): 5 µg/mL (≈ 17.7 µM)
MIC (Providence): 15 µg/mL (≈ 53.1 µM)
MIC (Pseudomonas): 100 µg/mL (≈ 354 µM)
MIC (Proteus): 10 µg/mL (≈ 35.4 µM)
MIC (Shigella): 100 µg/mL (≈ 354 µM)
% survival (Escherichia Coli; challenge 1 LD50, 50 mg/kg × 2, oral): 100%
% survival (Escherichia Coli; challenge 10 LD50's, 50 mg/kg × 2, oral): 100%
% survival (Escherichia Coli; challenge 100 LD50's, 50 mg/kg × 2, oral): 100%
% survival (Escherichia Coli; challenge 1000 LD50's, 50 mg/kg × 2, oral): 90%
% survival (Escherichia Coli; challenge 10,000 LD50's, 50 mg/kg × 2, oral): 75%

Nc1cc2ncn(C3CCCCO3)c2c(=O)[nH]1 (stereo not drawn) [Compound 13, 6-Amino-3-(tetrahydropyran-2-yl)imidazo[4,5-c]pyridin-4(5H)-one]
Virus rating (VR) [2]: 0.8

C[C@H]1O[C@@H](n2cnc3c(=O)[nH]c(N)cc32)[C@H](O)[C@@H]1O [Compound 16, 6-Amino-1-(5-deoxy-β-D-ribofuranosyl)imidazo[4,5-c]pyridine-4(5H)-one]
Virus rating (VR) [2]: 0.9

N#CCc1c(C(N)=O)ncn1[C@@H]1O[C@H](COP(=O)(O)O)[C@@H](O)[C@H]1O [Compound 20, 5-Cyanomethyl-1-β-D-ribofuranosylimidazole-4-carboxamide 5'-phosphate]
Virus rating (VR) [2]: 0.8
Virus rating (VR) [3]: 0.5
Virus rating (VR) (vaccinia virus): 0.3

Nc1cc2c(ncn2[C@@H]2O[C@H](COP(=O)(O)O)[C@@H](O)[C@H]2O)c(=O)[nH]1 [Compound 22, 6-Amino-1-β-D-ribofuranosylimidazo[4,5-c]pyridin-4(5H)-one 5'-phosphate]
Virus rating (VR) [2]: 0.9
Virus rating (VR) [3]: 1.0
Virus rating (VR) (vaccinia virus): 0.7
Virus rating (VR) [4]: 0.8
Virus rating (VR) [5]: 0.3
Virus rating (VR) (rhinovirus, type 13): 0.9

Nc1cc2ncn([C@@H]3O[C@H](COP(=O)(O)O)[C@@H](O)[C@H]3O)c2c(=O)[nH]1 [Compound 23, 6-Amino-3-β-D-ribofuranosylimidazo[4,5-c]pyridin-4(5H)-one-5'-phosphate]
% survival (Escherichia Coli; challenge 1000 LD50's, 100 mg/kg × 1, oral): 100%

N#CCc1[nH]cnc1C(N)=O [Compound 29, 4(5)-Cyanomethylimidazole-5(4)-carboxamide]
Virus rating (VR) (adenovirus, type 3): 0.8
Virus rating (VR) [2]: 0.9
Virus rating (VR) [4]: 0.5
Virus rating (VR) (rhinovirus, type 13): 0.6

O=c1[nH]c(=O)n([C@H]2C[C@H](O)[C@@H](CO)O2)cc1I [IDU, 5-iodo-2' -deoxyuridine]
activity against respiratory disease viruses [1]: only active against a limited spectrum of viruses which does not include those causing respiratory diseases

Nc1ncnc2c1ncn2[C@@H]1O[C@H](CO)[C@@H](O)[C@@H]1O [ara-A, 9-β-D-arabino furanosyladenine]
activity against respiratory disease viruses [1]: only active against a limited spectrum of viruses which does not include those causing respiratory diseases

Gentamycin [reference compound]
% survival (Escherichia Coli; challenge 1 LD50, 1 mg/kg × 2, SC): 100%
% survival (Escherichia Coli; challenge 10 LD50's, 1 mg/kg × 2, SC): 100%
% survival (Escherichia Coli; challenge 100 LD50's, 1 mg/kg × 2, SC): 90%
% survival (Escherichia Coli; challenge 1000 LD50's, 1 mg/kg × 2, SC): 80%
% survival (Escherichia Coli; challenge 10,000 LD50's, 1 mg/kg × 2, SC): 60%
